The NIST ThermoML archive (doi:10.1007/s10765-011-1087-7)
Numbers after ± are expanded uncertainties.

Columns and labels:
[1] = refractive index (Na D-line) (dimensionless); xn = mol fraction of the nth substance listed; settings: 101 kPa, Liquid, x1 = 1
[2] = xn = mol fraction of the nth substance listed; settings: 101 kPa, Liquid, x1 = 1; for speed of sound: Pulse-echo method
[3] = refractive index (Na D-line) (dimensionless); settings: 101.33 kPa, Liquid
[4] = 101 kPa, Liquid; for viscosity: Capillary tube (Ostwald / Ubbelohde) method; for speed of sound: Pulse-echo method

Clc1ccccc1Cl [1,2-dichlorobenzene] + CCCCCCC(C)O
refractive index ([1]; 298.15 K): 1.546 ± 0.0012 | refractive index ([1]; 303.15 K): 1.544 ± 0.0012 | refractive index ([1]; 308.15 K): 1.541 ± 0.0012 | speed of sound ([2]; 298.15 K): 1281.6 ± 1.3 m/s | mass density ([2]; 298.15 K): 1300.3 ± 0.87 kg/m3 | viscosity ([2]; 298.15 K): 1.314 ± 0.047 mPa·s | speed of sound ([2]; 303.15 K): 1265.2 ± 1.3 m/s | mass density ([2]; 303.15 K): 1294.72 ± 0.86 kg/m3 | viscosity ([2]; 303.15 K): 1.235 ± 0.045 mPa·s | speed of sound ([2]; 308.15 K): 1245.9 ± 1.3 m/s | mass density ([2]; 308.15 K): 1289.13 ± 0.85 kg/m3 | viscosity ([2]; 308.15 K): 1.144 ± 0.042 mPa·s

Clc1cccc(Cl)c1 [1,3-dichlorobenzene]
refractive index ([3]; 298.15 K): 1.544 ± 0.0012 | refractive index ([3]; 303.15 K): 1.541 ± 0.0012 | refractive index ([3]; 308.15 K): 1.538 ± 0.0012 | mass density ([4]; 298.15 K): 1283.45 ± 0.84 kg/m3 | viscosity ([4]; 298.15 K): 1.014 ± 0.009 mPa·s | speed of sound ([4]; 298.15 K): 1255 ± 1.3 m/s | mass density ([4]; 303.15 K): 1277.79 ± 0.82 kg/m3 | viscosity ([4]; 303.15 K): 0.946 ± 0.008 mPa·s | speed of sound ([4]; 303.15 K): 1238.4 ± 1.3 m/s | mass density ([4]; 308.15 K): 1272.1 ± 0.81 kg/m3 | viscosity ([4]; 308.15 K): 0.891 ± 0.008 mPa·s | speed of sound ([4]; 308.15 K): 1221.9 ± 1.3 m/s

Clc1cccc(Cl)c1 [1,3-dichlorobenzene] + CCCCCCC(C)O
refractive index ([1]; 298.15 K): 1.544 ± 0.0012 | refractive index ([1]; 303.15 K): 1.541 ± 0.0012 | refractive index ([1]; 308.15 K): 1.538 ± 0.0012 | speed of sound ([2]; 298.15 K): 1255 ± 1.3 m/s | mass density ([2]; 298.15 K): 1283.45 ± 0.84 kg/m3 | viscosity ([2]; 298.15 K): 1.014 ± 0.075 mPa·s | speed of sound ([2]; 303.15 K): 1238.4 ± 1.3 m/s | mass density ([2]; 303.15 K): 1277.79 ± 0.82 kg/m3 | viscosity ([2]; 303.15 K): 0.946 ± 0.071 mPa·s | speed of sound ([2]; 308.15 K): 1221.9 ± 1.3 m/s | mass density ([2]; 308.15 K): 1272.1 ± 0.81 kg/m3 | viscosity ([2]; 308.15 K): 0.891 ± 0.067 mPa·s

Clc1ccc(Cl)c(Cl)c1 [1,2,4-trichlorobenzene]
refractive index ([3]; 298.15 K): 1.548 ± 0.0012 | refractive index ([3]; 303.15 K): 1.546 ± 0.0012 | refractive index ([3]; 308.15 K): 1.543 ± 0.0012 | mass density ([4]; 298.15 K): 1448.41 ± 1.1 kg/m3 | viscosity ([4]; 298.15 K): 1.926 ± 0.012 mPa·s | speed of sound ([4]; 298.15 K): 1272 ± 1.2 m/s | mass density ([4]; 303.15 K): 1442.43 ± 1.1 kg/m3 | viscosity ([4]; 303.15 K): 1.76 ± 0.012 mPa·s | speed of sound ([4]; 303.15 K): 1256.4 ± 1.2 m/s | mass density ([4]; 308.15 K): 1436.45 ± 1.1 kg/m3 | viscosity ([4]; 308.15 K): 1.617 ± 0.011 mPa·s | speed of sound ([4]; 308.15 K): 1240.9 ± 1.2 m/s

CCCCCCC(C)O (configuration not stated) [2-octanol]
refractive index ([3]; 298.15 K): 1.4226 ± 0.0012 | refractive index ([3]; 303.15 K): 1.4206 ± 0.0012 | refractive index ([3]; 308.15 K): 1.4185 ± 0.0012 | mass density ([4]; 298.15 K): 816.39 ± 0.57 kg/m3 | viscosity ([4]; 298.15 K): 6.566 ± 0.072 mPa·s | speed of sound ([4]; 298.15 K): 1307 ± 1 m/s | mass density ([4]; 303.15 K): 812.58 ± 0.58 kg/m3 | viscosity ([4]; 303.15 K): 5.178 ± 0.061 mPa·s | speed of sound ([4]; 303.15 K): 1289 ± 1 m/s | mass density ([4]; 308.15 K): 808.74 ± 0.59 kg/m3 | viscosity ([4]; 308.15 K): 4.162 ± 0.051 mPa·s | speed of sound ([4]; 308.15 K): 1271 ± 1 m/s

Clc1ccccc1Cl [1,2-dichlorobenzene]
refractive index ([3]; 298.15 K): 1.546 ± 0.0012 | refractive index ([3]; 303.15 K): 1.544 ± 0.0012 | refractive index ([3]; 308.15 K): 1.541 ± 0.0012 | mass density ([4]; 298.15 K): 1300.3 ± 0.87 kg/m3 | viscosity ([4]; 298.15 K): 1.314 ± 0.01 mPa·s | speed of sound ([4]; 298.15 K): 1281.6 ± 1.3 m/s | mass density ([4]; 303.15 K): 1294.72 ± 0.86 kg/m3 | viscosity ([4]; 303.15 K): 1.235 ± 0.01 mPa·s | speed of sound ([4]; 303.15 K): 1265.2 ± 1.3 m/s | mass density ([4]; 308.15 K): 1289.13 ± 0.85 kg/m3 | viscosity ([4]; 308.15 K): 1.144 ± 0.009 mPa·s | speed of sound ([4]; 308.15 K): 1245.9 ± 1.3 m/s
